Calls of active or inactive are those of the source. No cut-off for these calls is given here.
Tests used:
[1] = molecular target: D(1A) dopamine receptor (Rattus norvegicus, UniProt P18901); assay: In vitro binding affinity towards Dopamine receptor D1
[2] = molecular target: D(2) dopamine receptor (Rattus norvegicus, UniProt P61169); assay: In vitro binding affinity towards Dopamine receptor D2
[3] = tested on: Rattus norvegicus; assay: Effect of compound on total full contralateral turns at the dose of 1.0 mg/Kg administered perorally in ungerstedt rat model; type: functional
[4] = tested on: Rattus norvegicus; assay: Effect of compound on total full contralateral turns at the dose of 0.3 mg/Kg administered perorally in ungerstedt rat model; type: functional
[5] = tested on: Rattus norvegicus; assay: Effect of compound on total full contralateral turns at the dose of 10 mg/Kg administered perorally in ungerstedt rat model; […]; type: functional, organism-based
[6] = molecular target: D(2) dopamine receptor (Homo sapiens, UniProt P14416); assay: Tested for percent intrinsic activity towards Dopamine receptor D2 in CHO cells; type: cell-based
[7] = tested on: Rattus norvegicus; assay: Effect of compound on total full contralateral turns at the dose of 10 mg/Kg administered perorally in ungerstedt rat model; type: functional

D(2) dopamine receptor (Rattus norvegicus, UniProt P61169), sequence (P61169 whole entry): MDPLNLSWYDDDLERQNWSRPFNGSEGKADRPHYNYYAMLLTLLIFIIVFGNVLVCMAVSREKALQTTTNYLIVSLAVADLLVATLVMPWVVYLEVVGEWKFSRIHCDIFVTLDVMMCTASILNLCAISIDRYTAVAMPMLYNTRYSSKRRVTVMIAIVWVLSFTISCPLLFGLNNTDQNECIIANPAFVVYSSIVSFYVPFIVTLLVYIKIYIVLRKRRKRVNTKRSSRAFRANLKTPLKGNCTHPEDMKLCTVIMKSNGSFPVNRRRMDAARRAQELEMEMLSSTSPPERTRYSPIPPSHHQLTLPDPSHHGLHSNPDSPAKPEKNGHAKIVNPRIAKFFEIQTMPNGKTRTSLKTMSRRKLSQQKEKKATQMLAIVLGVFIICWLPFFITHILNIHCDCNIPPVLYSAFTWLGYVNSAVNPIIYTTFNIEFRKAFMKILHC
D(2) dopamine receptor (Homo sapiens, UniProt P14416), sequence (P14416 whole entry): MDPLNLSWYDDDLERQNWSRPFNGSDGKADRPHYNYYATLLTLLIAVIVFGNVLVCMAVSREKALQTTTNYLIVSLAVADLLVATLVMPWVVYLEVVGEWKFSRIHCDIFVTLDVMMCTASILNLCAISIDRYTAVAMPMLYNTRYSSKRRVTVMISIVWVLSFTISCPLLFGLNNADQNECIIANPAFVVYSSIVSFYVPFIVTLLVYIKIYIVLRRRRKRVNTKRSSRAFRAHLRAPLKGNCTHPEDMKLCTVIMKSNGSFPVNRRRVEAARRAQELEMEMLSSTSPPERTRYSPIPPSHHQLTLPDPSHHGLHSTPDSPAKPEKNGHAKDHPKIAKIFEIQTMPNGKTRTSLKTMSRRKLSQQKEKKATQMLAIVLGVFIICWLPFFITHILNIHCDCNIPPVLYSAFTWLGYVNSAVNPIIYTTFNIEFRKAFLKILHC
D(1A) dopamine receptor, sequence (P18901 whole entry): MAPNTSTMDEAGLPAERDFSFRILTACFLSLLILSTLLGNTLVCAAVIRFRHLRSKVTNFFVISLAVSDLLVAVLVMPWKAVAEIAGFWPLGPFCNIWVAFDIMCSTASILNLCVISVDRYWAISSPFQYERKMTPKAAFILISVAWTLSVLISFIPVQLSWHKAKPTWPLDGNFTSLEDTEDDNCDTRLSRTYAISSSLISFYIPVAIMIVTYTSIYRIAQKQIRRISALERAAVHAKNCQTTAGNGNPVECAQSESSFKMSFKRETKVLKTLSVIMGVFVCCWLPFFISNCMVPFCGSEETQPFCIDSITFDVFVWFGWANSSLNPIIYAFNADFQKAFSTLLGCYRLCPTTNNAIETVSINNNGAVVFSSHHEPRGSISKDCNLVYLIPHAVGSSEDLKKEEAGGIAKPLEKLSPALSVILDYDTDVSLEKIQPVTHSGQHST

Compound | Turns [3] | Turns [4] | further results
CCCN(CCC)C1CCc2c(ccc(O)c2O)C1 (racemic) | – | – | Ki [1]: 170 nM; Ki [2]: 3 nM
CCCCO/N=C1\CCCC2=C1CCC(N(CCC)CCC)C2 (stereo unspecified) | 1364 | – | –
CCCN(CCC)[C@H]1CCC2=C(CCC/C2=N\OC(C)=O)C1 | – | 2007 | –
CCCO/N=C1\CCCC2=C1CCC(N(CCC)CCC)C2 (stereo unspecified) | 5406 | 943 | –
CCCN(CCC)C1CCC2=C(CCC/C2=N\OC(=O)c2ccc(C)cc2)C1 (stereo unspecified) | – | – | Turns [5]: inactive
CCCN(CCC)C1CCC2=C(CCC/C2=N\OC)C1 (racemic) | 5295 | 1007 | EC50 [6]: > 1000 nM; Ki [2]: 2300 nM
CCCN(CCC)C1CCC2=C(CCC/C2=N\OC(=O)C(C)C)C1 (stereo unspecified) | – | 152 | –
CCCN(CCC)C1CCC2=C(CCC/C2=N\OCc2ccccc2)C1 (stereo unspecified) | 4702 | 1652 | –
CCCN(CCC)C1CCC2=C(CCC/C2=N\OCC)C1 (stereo unspecified) | 4217 | 176 | –
CCCN(CCC)C1CCC2=C(CCC/C2=N\OC(=O)C(C)(C)C)C1 (stereo unspecified) | – | 187 | –
CCCN(CCC)C1CCC2=C(CCC/C2=N\OC(=O)c2ccccc2)C1 (stereo unspecified) | 2208 | – | –
CCCN(CCC)[C@H]1CCC2=C(CCC/C2=N\OC)C1 | – | – | Turns [7]: 2014
CCCN(CCC)C1CCC2=C(CCC/C2=N\OC(C)(C)C)C1 (stereo unspecified) | 2118 | – | –
CCCN(CCC)C1CCC2=C(CCC/C2=N\OC(C)=O)C1 (stereo unspecified) | – | 365 | –

Source: ChEMBL document CHEMBL1144936, “Orally active oxime derivatives of the dopaminergic prodrug 6-(N,N-di-n-propylamino)-3,4,5,6,7,8-hexahydro-2H-naphthalen-1-one. Synthesis and pharmacological activity” (J Med Chem, 2003)
